In paper PMC11487425 (RSC Medicinal Chemistry, 2024):
pIC50: −log10 of the molar value. Where two headings read alike, the source gives them in different places.

Tests used:
[1] = tested on: DYRK1A; conditions: cited from earlier work
[2] = target: T1, DYRK1B (Homo sapiens, UniProt Q9Y463); test: DYRK1B radiometric kinase assay with Woodtide substrate peptide; assay type: biochemical; conditions: read-out: % inhibition at 1 μM, DYRK1B
[3] = rat liver microsomes
[4] = target: T2, CLK1 (Homo sapiens, UniProt P49759); test: Z'-LYTE kinase activity assay
[5] = target: T2, CLK1; test: Radiometric kinase assay; assay type: biochemical
[6] = target: T1, DYRK1B; test: Z'-LYTE kinase activity assay
[7] = target: T3, DYRK2 (Homo sapiens, UniProt Q92630); test: LanthaScreen kinase binding assay
T3 sequence (Q92630 1-601): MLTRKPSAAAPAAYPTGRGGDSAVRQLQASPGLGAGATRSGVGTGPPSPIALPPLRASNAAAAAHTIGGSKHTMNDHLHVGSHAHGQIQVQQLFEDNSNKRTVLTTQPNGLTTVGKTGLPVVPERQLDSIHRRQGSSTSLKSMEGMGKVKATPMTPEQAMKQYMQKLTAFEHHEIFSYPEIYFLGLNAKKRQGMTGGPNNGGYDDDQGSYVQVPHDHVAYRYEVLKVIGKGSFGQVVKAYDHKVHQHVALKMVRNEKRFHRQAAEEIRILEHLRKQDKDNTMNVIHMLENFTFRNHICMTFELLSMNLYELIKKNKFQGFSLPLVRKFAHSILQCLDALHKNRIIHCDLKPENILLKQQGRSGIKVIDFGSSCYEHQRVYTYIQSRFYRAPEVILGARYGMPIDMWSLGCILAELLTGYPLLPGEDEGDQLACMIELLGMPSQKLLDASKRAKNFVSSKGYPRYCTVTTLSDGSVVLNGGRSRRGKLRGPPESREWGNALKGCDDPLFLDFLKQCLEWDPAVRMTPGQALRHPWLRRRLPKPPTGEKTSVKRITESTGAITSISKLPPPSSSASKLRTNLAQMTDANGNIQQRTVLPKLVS

T1 sequence (Q9Y463 whole entry): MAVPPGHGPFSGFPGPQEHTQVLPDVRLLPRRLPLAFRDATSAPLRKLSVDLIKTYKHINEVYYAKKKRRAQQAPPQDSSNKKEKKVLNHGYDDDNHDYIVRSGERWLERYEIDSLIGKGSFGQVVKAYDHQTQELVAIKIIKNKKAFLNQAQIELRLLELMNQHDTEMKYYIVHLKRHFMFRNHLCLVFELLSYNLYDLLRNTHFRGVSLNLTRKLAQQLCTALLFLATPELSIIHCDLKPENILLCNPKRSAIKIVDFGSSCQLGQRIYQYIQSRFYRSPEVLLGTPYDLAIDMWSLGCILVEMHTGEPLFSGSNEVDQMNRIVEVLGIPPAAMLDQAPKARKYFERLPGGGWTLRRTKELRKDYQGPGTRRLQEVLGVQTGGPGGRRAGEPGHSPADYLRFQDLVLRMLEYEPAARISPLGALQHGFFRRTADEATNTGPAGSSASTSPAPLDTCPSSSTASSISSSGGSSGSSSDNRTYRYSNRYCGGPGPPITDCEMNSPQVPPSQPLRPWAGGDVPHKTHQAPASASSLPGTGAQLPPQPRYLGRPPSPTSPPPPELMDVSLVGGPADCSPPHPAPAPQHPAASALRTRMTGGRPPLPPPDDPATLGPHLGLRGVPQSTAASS
T2 sequence (P49759 whole entry): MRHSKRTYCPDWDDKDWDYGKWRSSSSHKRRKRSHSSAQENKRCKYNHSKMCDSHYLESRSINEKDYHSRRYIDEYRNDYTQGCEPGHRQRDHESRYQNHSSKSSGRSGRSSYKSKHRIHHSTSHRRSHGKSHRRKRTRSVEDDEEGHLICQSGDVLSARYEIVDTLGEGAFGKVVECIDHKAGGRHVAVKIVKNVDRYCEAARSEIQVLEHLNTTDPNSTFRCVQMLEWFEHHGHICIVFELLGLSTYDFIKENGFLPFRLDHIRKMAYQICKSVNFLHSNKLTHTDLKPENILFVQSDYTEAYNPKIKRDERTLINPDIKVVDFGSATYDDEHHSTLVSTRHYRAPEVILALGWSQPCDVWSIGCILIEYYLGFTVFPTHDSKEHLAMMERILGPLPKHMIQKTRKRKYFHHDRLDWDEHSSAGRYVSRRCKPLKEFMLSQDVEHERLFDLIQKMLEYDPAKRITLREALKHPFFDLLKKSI

SMILES	inhibition at 1 µM [2]	microsomal stability in words [3]	also measured
CC(=O)c1cc2cc(O)ccc2s1 [1-(5-hydroxy-1-benzothiophen-2-yl)ethan-1-one]	–	–	pIC50 ([1]; read-out: IC50 DYRK1A): 6.70
COc1ccc2sc3c(c2c1)-c1c(OC)cccc1C3=O [4f, 2,10-Dimethoxy-6H-benzo[b]indeno[1,2-d]thiophen-6-one]	< 5%	rapidly metabolized	–
O=C(c1ccccc1)c1cc2cc(O)ccc2s1 [5c]	–	–	pIC50 ([1]; read-out: IC50 for DYRK1A, benzothiophenyl-acetophenones 5, Fig. 2): 5.70
COc1cccc2c1C(=O)c1sc3ccccc3c1-2 [4d, 7-Methoxy-6H-benzo[b]indeno[1,2-d]thiophen-6-one]	7%	rapidly metabolized	–
COc1cccc2c1-c1c(sc3ccccc13)C2=O [4a, 10-Methoxy-6H-benzo[b]indeno[1,2-d]thiophen-6-one]	–	rapidly metabolized	–

Further lines, with some results ahead:

inhibition at 1 µM [2]	microsomal stability in words [3]	SMILES	also measured
93%	–	COc1ccc2c(c1)-c1c(sc3ccc(O)cc13)C2=O [4j, 2-Hydroxy-9-methoxy-6H-benzo[b]indeno[1,2-d]thiophen-6-one]	–
78%	–	COc1ccc2c(c1)C(=O)c1sc3ccc(O)cc3c1-2 [4k, 2-Hydroxy-8-methoxy-6H-benzo[b]indeno[1,2-d]thiophen-6-one]	pIC50 [4]: 5.97; pIC50 [5]: 7.70; pIC50 [6]: 6.69; pIC50 [7]: 6.73
68%	–	COc1ccc2sc3c(c2c1)-c1ccccc1C3=O [4e, 2-Methoxy-6H-benzo[b]indeno[1,2-d]thiophen-6-one]	–
89%	–	O=C1c2ccccc2-c2c1sc1ccc(O)cc21 [4i, 2-Hydroxy-6H-benzo[b]indeno[1,2-d]thiophen-6-one]	–
